Data set [1] in a line: Intravenous tolerability / systemic toxicity in NMRI mice. Particulars: mouse, in vivo, iv, injected intravenously, read-out: maximally tolerated dose (MTD). It is filed as in vivo. The protocol: (§1) The compound of the invention (compound 11) was injected intravenously in NMRI mice. […] The compound was rapidly distributed and finally eliminated with a half-life of 4˜5 h. The systemic toxicity of the compound of the invention is low.

For the next data set, the system named is NMRI mice. The data set is described as above. It is filed as in vivo. As for the experimental part: as §1
The nature of data set [2]: Plasma pharmacokinetics after intravenous injection in NMRI mice. It is filed as in vivo. As for the experimental part:
as §1

The nature of data set [3]: Stability studies at room temperature in 5% aqueous mannitol. It is filed as physicochemical. Particulars: dihydrochloride/ethanol complex, storage for 100 h. The protocol:
Stability studies at room temperature were conducted with from 0.1 mg/L to 15 mg/L of the dihydrochloride/ethanol complex in 5% aqueous mannitol (to provide for isotonicity). […] For instance, about 2.5% compound 11 is degraded after storage for 100 h of a solution comprising 15 mg compound per liter, while about 5% of the compound is degraded in a solution comprising 2 mg compound per liter, and about 13 of the compound in a solution comprising 0.1 mg compound per liter.

As usually defined, the MTD is the largest dose that counted as tolerated. By half-life is commonly meant how long it takes for the measured level to halve.

Take `C/C(=N/Nc1ccc2c(n1)[nH]c1c(C)cccc12)c1ccccn1` [compound 11, 2-[(1Z)-1-(2-{8-Methyl-8H, 8aH, 9H-pyrido[2,3-b]indol-2-yl}hydrazin-1-ylidene)ethyl]-pyridine]: in data set [1], the maximal tolerated dose (MTD) is 16 mg/kg. Moreover, the “changes in plasma parameters (liver ALT, blood glucose, total protein)” value in the data set with NMRI mice (doses up to 4.5 mg/kg) is listed as “did not produce noteworthy changes”. Also, the “effect on the animals' weight gain” value with NMRI mice (doses up to 4.5 mg/kg) is recorded as “nor did they prevent the animals from gaining weight”. For the same molecule, the systemic toxicity result in the data set with NMRI mice (intravenous) is on record as “low”. Moreover, the “initial plasma concentration relative to the IC50 of tumor cell lines and primary patient colorectal cancer cells in vitro” value in data set [2] (at MTD of 16 mg/kg) is recorded as greater than 10 fold. Also, the half-life in data set [2] (mouse, plasma, 16 mg/kg, NMRI mice, read-out: elimination half-life) was in the range of 4 to 5 h. Also, the C0 in data set [2] (mouse, plasma, at MTD of 16 mg/kg, NMRI mice, read-out: initial plasma concentration) is roughly 100 µM. Also, the compound degraded result in data set [3] (0.1 mg compound per liter) is “about 13”; in data set [3] (2 mg compound per liter), “about 5%”; in data set [3] (15 mg compound per liter), “about 2.5%”.

(Values after patent US9562046B2, “Means and method for treating solid tumors” (Vivolux AB, priority 2012, dated 2017).)
